Laboratory results taken from patent publication US9062041B2 (Bayer Intellectual Property GmbH, priority 2011, dated 2015).

Experiments:
[1] = biological target: T1, human PGD receptor (Homo sapiens, UniProt Q13258); test: cAMP antagonism test on the human prostaglandin D receptor (HTRF cAMP detection); format: cell-based; details: selectivity towards hDP, IC50 measured by cAMP antagonism test
T1 sequence (Q13258 1-359): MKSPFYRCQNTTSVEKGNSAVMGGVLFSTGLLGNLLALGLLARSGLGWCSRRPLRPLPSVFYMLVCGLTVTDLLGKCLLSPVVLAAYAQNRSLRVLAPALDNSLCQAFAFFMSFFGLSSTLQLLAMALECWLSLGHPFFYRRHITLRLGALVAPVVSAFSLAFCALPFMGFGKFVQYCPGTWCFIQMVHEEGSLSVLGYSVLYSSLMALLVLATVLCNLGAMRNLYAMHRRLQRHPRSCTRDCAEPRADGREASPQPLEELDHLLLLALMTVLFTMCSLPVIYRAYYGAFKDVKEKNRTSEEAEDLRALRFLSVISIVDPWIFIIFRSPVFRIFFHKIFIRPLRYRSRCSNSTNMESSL
Method in brief: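 HTRF competition read-out (665/620 nm ratio ×10000), where higher FRET means less cAMP, i.e. antagonism. Compounds (0.8 nM–16.5 μM) were preincubated 20 min at RT with cells and cAMP-d2, PGD2 (3× solution, 6 nM) in IBMX-containing PBS added for 30 min at RT, then cells lysed 20 min.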

[2] = tested on: female cynomolgus monkeys (Macaca Fascicularis); test: In-vivo action on fertility in non-human primates (mating study); details: 6 months, 10 mg/kg (Example 17 once daily, Example 56 twice daily)
Experimental: 4.4 In-Vivo Action on Fertility in Non-Human Primates (Cynomolgus):
In order to study the effect of substances on fertility, mating studies can be performed in monkeys (Jensen et al. Contraception 81 (2010) 165-171). For this, the test substances are administered to female cynomolgus monkeys (Macaca Fascicularis) which are being kept in groups, then the animals are mated with a male animal. Matings are checked for by sperm detection in daily vaginal smears. Pregnancies resulting therefrom are identified by hormone determinations and ultrasound examinations. Through the changes in the serum oestradiol concentrations during the cycle, (rise before the midcycle LH peak), the fertile phase within a cycle of the individual animals can be determined Matings in this fertile period are described as “timed matings” (matings in the fertile phase). Apart from the absolute number of pregnancies occurring, the effect on the fertility can also be expressed as pregnancies per “timed matings”.
To test the action of EP2 receptor antagonists on fertility in monkeys, Examples 17 and 56 according to the invention were administered over 6 months, dissolved in 0.5 ml castor oil. Example 17 was administered once daily at a dosage of 10 mg/kg (n=10 animals), while Example 56 was administered twice daily at a dosage of 10 mg/kg (n=9 animals). Only the vehicle was administered to a control group (n=10 animals). In the first month of the treatment, no male animal was placed with the female animals. After this, female and male animals were kept together over 5 months, with detection of pregnancies and cycle monitoring.

[3] = tested on: ovulated cumulus-oocyte complexes; test: In-vivo action on post-ovulatory in-vitro fertilization; parameters: species or system mice (strain: B6D2F1); details: mice
Source text: 4.3 In-Vivo Action on Post-Ovulatory In-Vitro Fertilization: Substances can exert an influence on fertility by decreasing the fertilizability of oocytes or cumulus-oocyte complexes. In order to study such effects, substances can be administered in vivo and subjected to in vitro fertilization after ovulation of cumulus-oocyte complexes has taken place. The in-vitro fertilization rate, where no test substance is any longer present, allows conclusions as to the in-vivo effects of the test substances. Immature female mice (strain: B6D2F1, Charles River, Suelzfeld, age: 19-25 days) were kept in Macrolon cages in rooms with controlled illumination (12 hrs darkness: 12 hrs light), fed with a standard diet and provided with drinking water ad libitum. The mice were primed with PMSG (pregnant mare serum gonadotropin) (10 IU/animal i.p.). After 48 hours, a stimulus triggering ovulation was created in the animals by one administration of 10 IU/animal i.p. (hCG, human chorionic gonadotropin). The test substances were dissolved in benzyl benzoate/castor oil (1+4 v/v) and administered in a volume of 0.1 ml s.c. 1 hour before hCG (n=5 animals per group). Fourteen hours after hCG administration, the animals were killed. Ovulated oocytes and cumulus-oocyte complexes were obtained from the bursa ovarii and/or oviduct and subjected to in-vitro fertilization, wherein for the fertilization a sperm count of 40000 sperms/0.5 ml was used for 1 hour. Twenty-four hours after the incubation with the sperms, the number of fertilized oocytes is established and the percentage fertilization rate determined.

Row | SMILES | Selectivity hEP2/hDP [1] | % Pregnancies/"timed mating" [2] [%] | Pregnancies [2] | % fertilization with 1 mg/kg ([3]; 1 mg/kg s.c. 1 hour before hCG, in-vitro fertilization rate) [%] | % fertilization with 5 mg/kg ([3]; 5 mg/kg s.c. 1 hour before hCG, in-vitro fertilization rate) [%] | % fertilization with 10 mg/kg ([3]; 10 mg/kg s.c. 1 hour before hCG, in-vitro fertilization rate) [%] | influence on the fertilizability of ovulated cumulus-oocyte complexes ([3]; in-vivo administration)
1 | COCCNC(=O)c1ccc2nn(CC3CCN(C(=O)c4ccc(-c5ccc(F)cc5)cc4F)CC3)cc2c1C [Example 42, 2-({1-[(3,4′-difluoro-biphenyl-4-yl)-carbonyl]piperidin-4-yl}methyl)-N-(2-methoxyethyl)-4-methyl-2H-indazol-5-carboxamide] | xxx (xxx > 100) | – | – | – | – | – | –
2 | COCCNC(=O)c1ccc2nn(CC3CCN(C(=O)c4ccc(Oc5ccc(C(F)(F)F)cc5)cc4)CC3)cc2c1C [Example 17, N-(2-methoxyethyl)-4-methyl-2-[(1-{4-[4-(trifluoromethyl)-phenoxy]benzoyl}-piperidin-4-yl)-methyl]-2H-indazol-5-carboxamide] | xxx (xxx > 100) | 6 | 3 | 20 ± 10 | 9 ± 1 | 8 ± 4 | dose-dependent influence
3 | Cc1c(C(=O)NCC(F)(F)F)ccc2nn(CC3CCN(C(=O)c4ccc(Oc5ccc(F)cc5)cc4)CC3)cc12 [Example 283, 2-({1-[4-(4-fluorophenoxy)benzoyl]piperidin-4-yl}methyl)-4-methyl-N-(2,2,2-trifluoroethyl)-2H-indazol-5-carboxamide] | xxx (xxx > 100) | – | – | – | – | – | –
4 | COCCNC(=O)c1ccc2nn(CC3CN(C(=O)c4ccc(Cl)cc4)C3)cc2c1C [Example 117, 2-{[1-(4-chlorobenzoyl)azetidin-3-yl]methyl}-N-(2-methoxyethyl)-4-methyl-2H-indazol-5-carboxamide] | xxx (xxx > 100) | – | – | – | – | – | –
